Results taken from article PMC3281113, “Recognition of Anesthetic Barbiturates by a Protein Binding Site: A High Resolution Structural Analysis” (PLoS ONE, 2012).
Like-named read-outs stand apart in the source and are kept apart here.

How the values were obtained:
horse spleen apoferritin = target: T1, horse spleen apoferritin (Equus caballus, UniProt P02791); test: isothermal titration calorimetry; type: binding
T1 construct: gene FTL; native spleen apoferritin from Sigma-Aldrich, 24-mer, heavy and light chains in approximate mole ratio 1:6; with Ferritin heavy chain
T1 sequence (P02791 2-175): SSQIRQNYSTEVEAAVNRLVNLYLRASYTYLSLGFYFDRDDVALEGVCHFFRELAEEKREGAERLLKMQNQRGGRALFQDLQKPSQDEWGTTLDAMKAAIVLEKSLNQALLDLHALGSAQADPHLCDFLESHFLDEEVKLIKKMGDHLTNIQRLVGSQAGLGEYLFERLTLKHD

[1] = target: the molecule itself; test: crystal structure; apoferritin co-crystallized with thiopental or pentobarbital; reservoir 0.2-1.6 M (NH4)2SO4, 0.1-0.275 M CdSO4, 18°C; space group F432

In the case of `CCCC(C)C1(CC)C(=O)NC(=O)NC1=O` (racemic) [Pentobarbital], the Kd (horse spleen apoferritin) is reported as 64.3 ± 5.5 µM.

For `CCCC(C)C1(CC)C(=O)NC(=S)NC1=O` (racemic) [Thiopental], the Kd (horse spleen apoferritin; read-out: Thiopental) was 11 ± 0.9 µM.

For `CCC[C@@H](C)C1(CC)C(=O)NC(=S)NC1=O` [R-form of thiopental], the Kd (horse spleen apoferritin; read-out: K d) was 29.3 ± 3.1 µM.

With `CCC[C@H](C)[C@@]1(CC)C(=O)N=C(S)NC1=O` [S-enantiomer of thiopental] the Kd (horse spleen apoferritin; read-out: K d) was 18.7 ± 0.9 µM.

B1: horse spleen apoferritin (natural protein, UniProt P02791 1-175, looked up)
chain: MSSQIRQNYSTEVEAAVNRLVNLYLRASYTYLSLGFYFDRDDVALEGVCHFFRELAEEKREGAERLLKMQNQRGGRALFQDLQKPSQDEWGTTLDAMKAAIVLEKSLNQALLDLHALGSAQADPHLCDFLESHFLDEEVKLIKKMGDHLTNIQRLVGSQAGLGEYLFERLTLKHD
notes: ferritin light chain of horse spleen apoferritin; only the light chain is modelled in the structures; The commercial apoferritin is a mixture of heavy and light chains in an approximate mole ratio of 1:6; Only the light chain is seen in the electron density, so the 24-mer is written here as light chains only; also called L-chain; L-protomers; source: bought: Sigma-Aldrich; purified by gel …
With B1 the “stoichiometry N” value [1] was 24.
